# Test results reported in ChEMBL document CHEMBL1201862, “PubChem BioAssay data set” (2004).
#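 Cultured in 96-well plates, cells were exposed to test compound for 48 hours across five concentrations. GI50 = concentration required for 50% inhibition of growth.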 The source made the active and inactive calls. Rule as the data show it: active = GI50 up to about 1.1 µM and inactive = higher.
# Legend:
# Test in all cases: NCI anticancer screen, dose series, 48 h
# 786-0 = test system: 786-0
# A549 = test system: A549
# ACHN = test system: ACHN
# CCRF-CEM = test system: CCRF-CEM
# COLO 205 = test system: COLO 205
# DMS-114 = test system: DMS-114
# DMS-273 = test system: DMS-273
# EKVX = test system: EKVX
# HCC 2998 = test system: HCC 2998
# HCT-116 = test system: HCT-116
# HCT-15 = test system: HCT-15
# HL-60 = test system: HL-60
# HOP-62 = test system: HOP-62
# HT-29 = test system: HT-29
# IGROV-1 = test system: IGROV-1
# K562 = test system: K562
# KM-20L2 = test system: KM-20L2
# KM12 = test system: KM12
# LOX IMVI = test system: LOX IMVI
# LXFL 529 = test system: LXFL 529
# M14 = test system: M14
# M19-MEL = test system: M19-MEL
# MOLT-4 = test system: MOLT-4
# Malme-3M = test system: Malme-3M
# NCI-H226 = test system: NCI-H226
# NCI-H23 = test system: NCI-H23
# NCI-H460 = test system: NCI-H460
# NCI-H522 = test system: NCI-H522
# OVCAR-3 = test system: OVCAR-3
# OVCAR-8 = test system: OVCAR-8
# RPMI-8226 = test system: RPMI-8226
# SF-268 = test system: SF-268
# SF-295 = test system: SF-295
# SF-539 = test system: SF-539
# SK-MEL-28 = test system: SK-MEL-28
# SK-MEL-5 = test system: SK-MEL-5
# SK-OV-3 = test system: SK-OV-3
# SN12C = test system: SN12C
# SNB-19 = test system: SNB-19
# SR = test system: SR
# SW-620 = test system: SW-620
# TK-10 = test system: TK-10
# U-251 = test system: U-251
# UACC-257 = test system: UACC-257
# UO-31 = test system: UO-31
# XF498 = test system: XF498
# A498 = test system: A498
# HOP-18 = test system: HOP-18
# SK-MEL-2 = test system: SK-MEL-2
# UACC-62 = test system: UACC-62
smiles,measurement,setting,value
CCCCCCCCCC(=O)NC(Cc1ccc(O)cc1)C(=O)NCCCNCCCCNCCCNC(=O)[C@@H](N)CCCN=C(N)N (stereo not given in full),GI50,786-0,61.7 µM (inactive)
same,GI50,A549,76 µM (inactive)
same,GI50,ACHN,18.9 µM (inactive)
same,GI50,CCRF-CEM,84.9 µM (inactive)
same,GI50,COLO 205,13.8 µM (inactive)
same,GI50,DMS-114,61.8 µM (inactive)
same,GI50,DMS-273,20.9 µM (inactive)
same,GI50,EKVX,30.1 µM (inactive)
same,GI50,HCC 2998,27.7 µM (inactive)
same,GI50,HCT-116,> 100 µM (inactive)
same,GI50,HCT-15,86.7 µM
same,GI50,HL-60,16.2 µM (inactive)
same,GI50,HOP-62,22.9 µM (inactive)
same,GI50,HT-29,> 100 µM (inactive)
same,GI50,IGROV-1,17.9 µM (inactive)
same,GI50,K562,29.9 µM (inactive)
same,GI50,KM-20L2,> 100 µM (inactive)
same,GI50,KM12,20.9 µM (inactive)
same,GI50,LOX IMVI,84.1 µM (inactive)
same,GI50,LXFL 529,77.3 µM (inactive)
same,GI50,M14,> 100 µM (inactive)
same,GI50,M19-MEL,50.2 µM (inactive)
same,GI50,MOLT-4,> 100 µM (inactive)
same,GI50,Malme-3M,20.4 µM (inactive)
same,GI50,NCI-H226,61.2 µM (inactive)
same,GI50,NCI-H23,57.7 µM (inactive)
same,GI50,NCI-H460,15.5 µM (inactive)
same,GI50,NCI-H522,28.8 µM (inactive)
same,GI50,OVCAR-3,> 100 µM (inactive)
same,GI50,OVCAR-8,33.6 µM (inactive)
same,GI50,RPMI-8226,64.9 µM (inactive)
same,GI50,SF-268,82.2 µM (inactive)
same,GI50,SF-295,29 µM (inactive)
same,GI50,SF-539,11 µM (inactive)
same,GI50,SK-MEL-28,19.2 µM (inactive)
same,GI50,SK-MEL-5,12.8 µM (inactive)
same,GI50,SK-OV-3,36.6 µM (inactive)
same,GI50,SN12C,60.7 µM (inactive)
same,GI50,SNB-19,70.1 µM (inactive)
same,GI50,SR,73.3 µM (inactive)
same,GI50,SW-620,> 100 µM (inactive)
same,GI50,TK-10,46.9 µM (inactive)
same,GI50,U-251,> 10 µM (inactive)
same,GI50,UACC-257,44.5 µM (inactive)
same,GI50,UO-31,31.9 µM (inactive)
same,GI50,XF498,> 100 µM (inactive)
CC1=C[P+](Cc2ccccc2)(c2ccccc2)CC1 (stereo not given),GI50,A498,> 100 µM (inactive)
same,GI50,CCRF-CEM,> 100 µM (inactive)
same,GI50,COLO 205,31.6 µM (inactive)
same,GI50,DMS-114,46.9 µM (inactive)
same,GI50,DMS-273,78 µM (inactive)
same,GI50,EKVX,54.6 µM (inactive)
same,GI50,HCT-116,> 100 µM (inactive)
same,GI50,HL-60,34 µM (inactive)
same,GI50,HOP-18,> 100 µM (inactive)
same,GI50,HOP-62,> 100 µM (inactive)
same,GI50,HT-29,66.4 µM (inactive)
same,GI50,IGROV-1,81.1 µM (inactive)
same,GI50,KM-20L2,75.2 µM (inactive)
same,GI50,KM12,> 100 µM (inactive)
same,GI50,LOX IMVI,90.4 µM (inactive)
same,GI50,LXFL 529,45.4 µM (inactive)
same,GI50,M19-MEL,46.8 µM (inactive)
same,GI50,NCI-H226,> 100 µM (inactive)
same,GI50,NCI-H522,41.7 µM (inactive)
same,GI50,OVCAR-3,44.3 µM (inactive)
same,GI50,RPMI-8226,25.7 µM (inactive)
same,GI50,SF-539,> 100 µM (inactive)
same,GI50,SK-MEL-2,> 100 µM (inactive)
same,GI50,SK-MEL-5,21.5 µM (inactive)
same,GI50,SNB-19,> 100 µM (inactive)
same,GI50,SW-620,> 100 µM (inactive)
same,GI50,UACC-257,41.9 µM (inactive)
same,GI50,UACC-62,63.7 µM (inactive)
same,GI50,UO-31,> 100 µM (inactive)
